Data on one compound can be found in patent US20240317732A1, “A NEW MOLECULAR SCAFFOLD FOR TARGETING HRPN13” (THE UNITED STATES OF AMERICA AS REPRESENTED BY THE …, priority 2021, published 2024).

One assay has as its system HCT116 WT cells. As to the kind of experiment: MTT cell metabolism / cell viability assay in HCT116 WT. Type of assay: cell-based. Conditions: read-out: XL5-VHL-2 Sensitivity (IC50, μM) Cell viability assay. On the procedure: (§1) Since previous hRpn13-targeting molecules induce apoptosis in multiple myeloma and colon cancer cells we tested whether XL5 restricts the RPMI 8226 multiple myeloma and HCT116 colon cancer cell lines by measuring metabolism with an MTT (3-(4,5-dimethylthiazol-2-yl)-2,5-diphenyltetrazolium bromide) assay. Experiments were also conducted in parallel with a HCT116 colon cancer cell line in which the exon encoding hRpn13 C88 is deleted, named trRpn13; this cell line expresses a truncated hRpn13 protein with a defective Pru and inability to bind the proteasome28. RPMI 8226 and WT (wild-type) or trRpn13 HCT116 cells seeded at 8,000 and 4,000 cells per well were treated with varying concentrations of XL5 extending to 40 μM and compared to cells incubated with equivalent amounts of DMSO vehicle control.
HCT116 WT or trRpn13 cells were seeded at 4,000 cells/well whereas RPMI 8226 cells were seeded at 8,000 cells/well with RPMI 1640 medium (no phenol red, Thermo Fisher Scientific 11835030) containing 2% fetal bovine serum in 96-well plates. Cells were treated with 0.4% DMSO (as a control) and this concentration was maintained with XL5, XL5-PROTACs XL5-VHL, XL5-VHL-2, XL5-CRBN, or XL5-IAP, and E3 ligands VHL-Ac, thalidomide (Selleckchem, catalog NO. S1193), or IAP-Bz at 10 μM, 20 μM, 30 μM or 40 μM concentration. […] Absorbance at 570 nm was measured by using CLARIOstar (BMG LABTECH).

The test system of a further assay is RPMI 8226 WT cells. As to the kind of experiment: Apoptosis by cleaved caspase-9 immunoblot in RPMI 8226 WT. Type of assay: cell-based. Particulars: 40 μM PROTAC or 20 μM XL5-S2. On the procedure:
RPMI 8226 WT or trRpn13-MM2 (MM2) cells were treated with 40 μM XL5-VHL-2, 40 μM XL5-VHL-3 or DMSO (vehicle control) and the whole cell extract immunoprobed for hRpn13 or cleaved caspase-9 with β-actin as a loading control. A black asterisk indicates cleaved caspase-9 in the 2-min immunoblot for hRpn13, as hRpn13 was probed following cleaved caspase-9 and without stripping the membrane.
RPMI 8226 WT or trRpn13-MM2 cells were treated with 20 μM XL5-S2 or DMSO (vehicle control) and the whole cell extract immunoprobed for hRpn13 or cleaved caspase-9, with β-actin as a loading control. A black asterisk indicates cleaved caspase-9 in the 5-min immunoblot for hRpn13, as hRpn13 was probed following cleaved caspase-9 and without stripping the membrane.
HCT116 WT, HCT116 trRpn13, RPMI 8226 or 293T cells were collected and washed with PBS followed by lysing in 1% Triton-TBS lysis buffer (50 mM Tris-HCl, pH 7.5, 150 mM NaCl, 1 mM PMSF) supplemented with protease inhibitor cocktail (Roche). Total protein concentration was determined by bicinchoninic acid (Pierce). Protein lysates were prepared in 1χ LDS (ThermoFisher, NP0007) buffer with 100 mM DTT and heating at 70° C. for 10 min, loaded onto 4-12% Bis-Tris polyacrylamide gels (Life Technologies), subjected to SDS-PAGE and transferred to Invitrolon polyvinylidene difluoride membranes (Life Technologies). […]

For assay [1], the system named is RPMI 8226 trRpn13-MM2 cells. As to the kind of experiment: MTT cell viability assay in RPMI 8226 trRpn13-MM2. Type of assay: cell-based. Conditions: RPMI 8226 trRpn13-MM2, 48 hours, compared to WT. On the procedure: FIGS. 11A-11C show hRpn13-Pru PROTACs with different linkers restrict cell viability in an hRpn13 Pru-dependent manner. RPMI 8226 WT (darker shades) or trRpn13-MM2 (lighter shades) cells were treated with the indicated concentration of XL5-VHL-2 (FIG. 11A), XL5-VHL-3 (FIG. 11A), XL5-VHL-4 (FIG. 11B) or XL5-VHL-5 (FIG. 11C) for 48 hours and cell metabolism measured by an MTT assay; data represent mean±SD of n=6 biological replicates. Viability is calculated as (λ570)sample/(λ570)control×100(%).
Background: Tetrazolium assays rely on reduction of a dye to a coloured formazan, in cell work by metabolically active cells.

The test system of another assay is hRpn13 / hRpn13-Pru. As to the kind of experiment: Immunoblot of hRpn13 species in RPMI 8226 cell lysates. Particulars: RPMI 8226, 40 μM, 24 hours. Type of assay: cell-based, human. On the procedure:
HCT116 WT, HCT116 trRpn13, RPMI 8226 or 293T cells were collected and washed with PBS followed by lysing in 1% Triton-TBS lysis buffer (50 mM Tris-HCl, pH 7.5, 150 mM NaCl, 1 mM PMSF) supplemented with protease inhibitor cocktail (Roche). Total protein concentration was determined by bicinchoninic acid (Pierce). Protein lysates were prepared in 1χ LDS (ThermoFisher, NP0007) buffer with 100 mM DTT and heating at 70° C. for 10 min, loaded onto 4-12% Bis-Tris polyacrylamide gels (Life Technologies), subjected to SDS-PAGE and transferred to Invitrolon polyvinylidene difluoride membranes (Life Technologies). The membranes were blocked in Tris-buffered saline with 0.1% Tween-20 (TBST) supplemented with 5% skim milk, incubated with primary antibody, washed in TBST, incubated with secondary antibody and washed extensively in TBST. Pierce™ ECL Western Blotting Substrate (32106; Thermo Fisher Scientific) or Amersham™ ECL™ Primer Western Blotting Detection Reagent (cytiva) was used for antibody signal detection.
To test whether the XL5-PROTACs cause ubiquitination and degradation of hRpn13, lysates from RPMI 8226 (FIG. 5C) cells treated with 40 μM XL5 orXL5-PROTAC compared to DMSO vehicle control were immunoprobed for hRpn13 and β-actin (loading control).

The test system of the next assay is MM.1S cells. As to the kind of experiment: MTT cell viability assay in MM.1S. It is filed as cell-based. Conditions: read-out: XL5-VHL-2 Sensitivity (IC50, μM) Cell viability assay. On the procedure: The mass spectra (upper panel) were deconvoluted from the UV peak (lower panel) indicated with a black arrow. […] Viability is calculated as (λ570)sample/(λ570)control×100(%). […] Immunoprobing for cleaved caspase-9 and hRpn13 was done separately with re-probing for β-actin. […] A dashed line indicates the value […].

The next assay deals with RPMI 8226 cells. As to the kind of experiment: MTT cell metabolism / cell viability assay in RPMI 8226. It is filed as cell-based. As to the method: as §1
HCT116 WT or trRpn13 cells were seeded at 4,000 cells/well whereas RPMI 8226 cells were seeded at 8,000 cells/well with RPMI 1640 medium (no phenol red, Thermo Fisher Scientific 11835030) containing 2% fetal bovine serum in 96-well plates. Cells were treated with 0.4% DMSO (as a control) and this concentration was maintained with XL5, XL5-PROTACs XL5-VHL, XL5-VHL-2, XL5-CRBN, or XL5-IAP, and E3 ligands VHL-Ac, thalidomide (Selleckchem, catalog NO. S1193), or IAP-Bz at 10 μM, 20 μM, 30 μM or 40 μM concentration. After 48 hours, 0.35 mg/mL MTT was added for 4 hours of incubation. Stop solution (40% DMF, 10% SDS (W/V), 25 mM HCl, 2.5% acetic acid in H2O) was added to the cells and incubated overnight. Absorbance at 570 nm was measured by using CLARIOstar (BMG LABTECH).

“Also recorded” adds a separate entry of the source.

Take `Cc1ncsc1-c1ccc([C@H](C)NC(=O)[C@@H]2C[C@@H](O)CN2C(=O)[C@@H](NC(=O)CCCCc2cn(-c3ccc(C(=O)Nc4cccc(/C=C(\C#N)C(=O)Nc5ccccc5C(=O)O)c4)cc3)nn2)C(C)(C)C)cc1` [XL5-VHL-2]: the IC50 (as a rule, the concentration that gives 50% inhibition) was 23.6 ± 4.7 µM with HCT116 WT cells; 5.9 ± 0.7 µM in the assay with MM.1S cells; 4.2 ± 1 µM in the assay on RPMI 8226 cells (RPMI 8226, read-out: XL5-VHL-2 Sensitivity (IC50, μM) Cell viability assay). Besides, the “apoptosis induction (cleaved caspase-9)” value in the assay on RPMI 8226 WT cells is recorded as “poorer induction of cleaved caspase-9”. Moreover, in assay [1], the “cell viability (MTT)” value is “loss of activity”. Also, in the assay with hRpn13 / hRpn13-Pru, the “lower molecular weight hRpn13 species (hRpn13-Pru) level” value is reported as “less hRpn13-Pru loss; also recorded: reduced in abundance”. In addition, the “higher molecular weight hRpn13 species characteristic of ubiquitination” value in the assay with hRpn13 / hRpn13-Pru (longer exposure) was “increase in higher molecular weight hRpn13 species”. In the assay with RPMI 8226 cells (RPMI 8226, 48 hours, up to 40 μM), the “metabolic activity / cell viability (MTT)” value is “hook effect and lost”.
